# Experimental data as given in US20230399303A1, “Macrophage Migration Inhibitory Factor Inhibitors, and Methods of Making and Using Same” (YALE UNIVERSITY, priority 2020, published 2023).
# Biological target: T1, MIF (Homo sapiens, UniProt P14174)
# T1 sequence (P14174 2-115 limits assumed): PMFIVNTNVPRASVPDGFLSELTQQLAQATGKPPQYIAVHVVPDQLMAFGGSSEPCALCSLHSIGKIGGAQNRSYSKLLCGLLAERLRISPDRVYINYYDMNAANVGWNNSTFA
# Test: Competitive fluorescence polarization (FP) assay with tracer ligand B
# Format: binding
# Conditions: MIF Inhibition by Compounds of formula (Ia); Kd calculated from the IC50 of the competitive FP assay, fluorescent ligand B as tracer
# Experimental: Determination of the affinities for A and B by FP assay. Determination of Kd values for the tracers followed previously reported protocols for other proteins. Experiments are carried out by quadruplicates in three independent experiments. In a flat black bottom 96 well plate (Corning), add to the third column 300 μL of 1.8 μM MIF in FP buffer (20 mM HEPES, 150 mM NaCl, 0.01% Tween-20, pH 7.4). From this column, using a multichannel pipette make serial dilutions (1:2) into the following wells to a total volume of 150 μL. First column contains 200 μL buffer and is used as a blank, while second column contains 150 μL buffer. 2 μL of DMSO are added to each well to keep 1% of DMSO, followed by the addition of 16.7 nM ligand A or B (48 μL) except first column (blank). Fluorescence polarization is measured at λexc=485±20 nm, λem=535±25 nm using an Infinite F500 plate reader until no FP variation was observed (typically 1 h). From the lowest and highest FP values (tracer free and tracer fully bound to MIF) we calculated the fraction of ligand bound to the protein to ligand total (Lb/Lt) for each concentration of MIF.
# Competitive FP assay. In order to calculate the Kd values of the unlabeled compounds, competitive assays were carried out in quadruplicates in three independent experiments. In a flatblack bottom 96 well plate (Corning) 140 μL of FP buffer are added to columns 3-12. First column contains 200 μL buffer (blank), while second column contains 150 μL FP buffer. 10 μL of 1.1 μM MIF are added to columns 3-12 followed by the addition of 2 μL of inhibitor in DMSO at 9 different concentrations. 2 μL of DMSO are added to columns 1-3. After 20 min of incubation at rt 48 μL of 16.7 nM ligand B are added to columns 2-12 and fluorescencepolarization was measured at λexc=485±20 nm, λem=535±25 nm for 1 h. Data are analyzed by a least-squares non-linear fit, generated using Prism 6 in order to determine the compound's IC50. Kd values for each inhibitor are calculated using the following equation based on the IC50, Kd of the tracer (K^t), total (Lt) and bound (Lb) tracer, as well as total MIF concentration (Pt). Samples of 4-IPP and Pontamine Sky Blue were purchased both from Tocris and Santa Cruz Biotechnology.
row,Kd,SMILES
1,12 ± 1 nM,"O=C1Oc2cc(O)ccc2CN1c1ccc(OCCN2CCOCC2)cc1 [Compound C8, 7-Hydroxy-3-(4-(2-morpholinoethoxy)phenyl)-3,4-dihydro-2H-benzo[e][1,3]oxazin-2-one]"
2,16 ± 1 nM,"O=C1Oc2cc(O)ccc2CN1c1ccc(OCCOCCN2CCOc3ccccc32)cc1 [Compound C10, 3-(4-(2-(2-(2,3-Dihydro-4H-benzo[b][1,4]oxazin-4-yl)ethoxy)ethoxy)phenyl)-7-hydroxy-3,4-dihydro-2H-benzo[e][1,3]oxazin-2-one]"
3,53 ± 7 nM,O=C1Oc2cc(O)ccc2CN1c1ccc(OCCOCCOc2cccc(N3CCOCC3)c2)cc1 [Compound C9]

# More lines, now with the values behind:
row,SMILES,Kd
1,O=C(O)CCCOc1ccc(N2Cc3ccc(O)cc3OC2=O)cc1 [Compound C4],22 ± 8 nM
2,COCCOCCOc1ccc(N2Cc3ccc(O)cc3OC2=O)cc1 [Compound C2],16 ± 5 nM
3,COCCOc1ccc(N2Cc3ccc(O)cc3OC2=O)cc1 [Compound C1],6 ± 1 nM
4,O=C1Oc2cc(O)ccc2CN1c1ccc(C23CC4CC(CC(C4)C2)C3)cc1 [Compound C6],828 ± 44 nM
5,"O=C1Oc2cc(O)ccc2CN1c1ccc(OCCOCCN2CCOCC2)cc1 [Compound C3, 7-Hydroxy-3-(4-(2-(2-morpholinoethoxy)ethoxy)phenyl)-3,4-dihydro-2H-benzo[e][1,3]oxazin-2-one]",23 ± 13 nM
6,O=C1Oc2cc(O)ccc2CN1c1ccc(OCCOCCOCCN2CCOCC2)cc1 [Compound C7],23 ± 6 nM
